Several values for one entry are separate records, joined by “and”; a condition that tells them apart may be missing. Identical values can stand only once.
Key:
[1] = system: human monocyte-derived macrophages; assay: Cytotoxicity, AlamarBlue method; type: cell-based; details: for AlamarBlue fluorescence 530/25,590/35 (raw well reading): 72 h
Method: (§1) The blood was collected from healthy donors and the peripheral blood mononuclear cells were isolated by Ficoll-Paque Plus (GE Healthcare, Freiburg, Germany) density gradient centrifugation as previously described ([Machado et al., 2016]). […] Fresh medium was added at day 4 post isolation. The effect of the compounds on human monocyte-derived macrophages was evaluated using the AlamarBlue method (Molecular Probes, Life Technologies) ([O’Brien et al., 2000]), and by measuring the release of the lactate dehydrogenase (LDH) into the culture supernatants using the Pierce LDH Cytotoxicity Assay (ThermoFisher Scientific, Waltham, MA, USA) ([Chan, Moriwaki & Rosa, 2013]) according to the manufacturer’s instructions. Briefly, 5 × 10^4 cells were seeded in 96-well microplates treated with the compounds, and incubated at 37 °C with 5% CO2. After 72 h of treatment, the cell viability was assessed. For the AlamarBlue method, the dye was added to each well to a final concentration of 10% and incubated overnight at 37 °C and 5% CO2. The fluorescence was measured with a 540/35 excitation filter and a 590/20 emission filter in a Synergy HT multi-mode microplate reader. The release of LDH from damaged cells into culture supernatants, as an indicator of cytotoxicity, was measured in serum-free medium. Here the amount of enzyme activity correlates to the number of damaged cells. The specific lysis was calculated as follows: (treated cells—spontaneous LDH release)/ (maximum LDH release—spontaneous LDH release) ×100.

[2] = system: human monocyte-derived macrophages; assay: Cytotoxicity, LDH release; type: cell-based; details: 5 µM; 3 days
Method: as §1

E. coli AG100 = assay: EtBr efflux by real-time fluorometry; details: for EtBr fluorescence (Channel Cycling A.530/585hp): 80 µM, + glucose
Method: (§2) Control tubes with only cells and cells with and without 0.4% glucose were included. The fluorescence was measured in a Rotor-Gene 3000 and the data was acquired every 30 s for 30 min at 37 °C. The efflux activity was quantified by comparing the fluorescence data obtained under conditions that promote efflux (presence of glucose and absence of efflux inhibitor) with the data from the control in which the bacteria are under conditions of no efflux (presence of an inhibitor and no energy source).

E. coli AG100A = assay: EtBr efflux by real-time fluorometry; details: 20 µM, without glucose
Method: as §2

[3] = three days of exposure, AlamarBlue

In the case of `CCCOc1ccc(-c2cc(OCCN3CCNCC3)c3ccccc3n2)cc1` [PQQ4R, 4-(2-(piperazin-1-yl)ethoxy)-2-(4-propoxyphenyl) quinolone], the “AlamarBlue fluorescence 530/25,590/35 (raw well reading)” value ([1]; 0.625 uM) is reported as 4943 and 4771 and 4650, the “AlamarBlue fluorescence 530/25,590/35 (raw well reading)” value ([1]; 1.25 uM) is reported as 4755 and 4559 and 4604 and the “AlamarBlue fluorescence 530/25,590/35 (raw well reading)” value ([1]; 5 uM) is reported as 468 and 451 and 495. For the same molecule, the “AlamarBlue fluorescence 530/25,590/35 (raw well reading)” value ([1]; 10 uM) was 253 and 248, the “AlamarBlue fluorescence 530/25,590/35 (raw well reading)” value ([1]; 20 uM) was 256 and 246 and 248 and the “AlamarBlue fluorescence 530/25,590/35 (raw well reading)” value ([1]; 40 uM) was 254 and 251 and 248. The “AlamarBlue fluorescence 530/25,590/35 (raw well reading)” value ([1]; 80 uM) was 254 and 250 and 251, the “AlamarBlue fluorescence 530/25,590/35 (raw well reading)” value ([1]; 160 uM) was 259 and 263 and 255 and the CC10 [1, 3] was 9.21 µM. The CC90 [1, 3] was 12.7 µM, the “increase in LDH release” value [2] was 52.45% and the “inhibition of EtBr efflux” value (E. coli AG100; AG100, AG100A and AG100tet (Fig. 2), 80 μM (20 μM for AG100A), glucose, 37 °C) was “inhibited”. For the same molecule, the “EtBr fluorescence (Channel Cycling A.530/585hp)” value (shortened to “EtBr fluorescence”) (E. coli AG100; cycle 1) was 14.1835, the “EtBr fluorescence” value (E. coli AG100; cycle 2) was 12.9442 and the “EtBr fluorescence” value (E. coli AG100; cycle 3) was 12.1458. For the same molecule, the “EtBr fluorescence” value (E. coli AG100; cycle 9) was 9.004, the “EtBr fluorescence” value (E. coli AG100; cycle 10) was 8.5432 and the “EtBr fluorescence” value (E. coli AG100; cycle 11) was 8.357. The “EtBr fluorescence” value (E. coli AG100; cycle 12) was 8.087, the “EtBr fluorescence” value (E. coli AG100; cycle 13) was 7.737 and the “EtBr fluorescence” value (E. coli AG100; cycle 14) was 7.571. The “EtBr fluorescence” value (E. coli AG100; cycle 15) was 7.486, the “EtBr fluorescence” value (E. coli AG100; cycle 16) was 7.363 and the “EtBr fluorescence” value (E. coli AG100; cycle 17) was 7.106. For the same molecule, the “EtBr fluorescence” value (E. coli AG100; cycle 18) was 6.949, the “EtBr fluorescence” value (E. coli AG100; cycle 19) was 6.811 and the “EtBr fluorescence” value (E. coli AG100; cycle 20) was 6.647. The “EtBr fluorescence” value (E. coli AG100; cycle 21) was 6.6451, the “EtBr fluorescence” value (E. coli AG100; cycle 22) was 6.375 and the “EtBr fluorescence” value (E. coli AG100; cycle 23) was 6.294. The “EtBr fluorescence” value (E. coli AG100; cycle 24) was 6.27, the “EtBr fluorescence” value (E. coli AG100; cycle 25) was 6.171 and the “EtBr fluorescence” value (E. coli AG100; cycle 26) was 6.0708. For the same molecule, the “EtBr fluorescence” value (E. coli AG100; cycle 27) was 5.906, the “EtBr fluorescence” value (E. coli AG100; cycle 28) was 5.869 and the “EtBr fluorescence” value (E. coli AG100; cycle 29) was 5.816. The “EtBr fluorescence” value (E. coli AG100; cycle 30) was 5.711, the “EtBr fluorescence” value (E. coli AG100; cycle 31) was 5.67 and the “EtBr fluorescence” value (E. coli AG100; cycle 32) was 5.576. For the same molecule, the “EtBr fluorescence” value (E. coli AG100; cycle 33) was 5.469, the “EtBr fluorescence” value (E. coli AG100; cycle 34) was 5.4 and the “EtBr fluorescence” value (E. coli AG100; cycle 35) was 5.309. For the same molecule, the “EtBr fluorescence” value (E. coli AG100; cycle 36) was 5.284, the “EtBr fluorescence” value (E. coli AG100; cycle 37) was 5.241 and the “EtBr fluorescence” value (E. coli AG100; cycle 38) was 5.208. For the same molecule, the “EtBr fluorescence” value (E. coli AG100; cycle 39) was 5.097, the “EtBr fluorescence” value (E. coli AG100; cycle 40) was 5.016 and the “EtBr fluorescence” value (E. coli AG100; cycle 41) was 5.035. For the same molecule, the “EtBr fluorescence” value (E. coli AG100; cycle 42) was 4.981, the “EtBr fluorescence” value (E. coli AG100; cycle 43) was 4.838 and the “EtBr fluorescence” value (E. coli AG100; cycle 44) was 4.747. For the same molecule, the “EtBr fluorescence” value (E. coli AG100A; cycle 1) was 5.807, the “EtBr fluorescence” value (E. coli AG100A; cycle 2) was 5.662 and the “EtBr fluorescence” value (E. coli AG100A; cycle 3) was 5.478. The “EtBr fluorescence” value (E. coli AG100A; cycle 4) was 5.356, the “EtBr fluorescence” value (E. coli AG100A; cycle 5) was 5.183 and the “EtBr fluorescence” value (E. coli AG100A; cycle 6) was 5.1485. The “EtBr fluorescence” value (E. coli AG100A; cycle 7) was 5.025, the “EtBr fluorescence” value (E. coli AG100A; cycle 8) was 4.924 and the “EtBr fluorescence” value (E. coli AG100A; cycle 9) was 4.937. The “EtBr fluorescence” value (E. coli AG100A; cycle 10) was 4.811, the “EtBr fluorescence” value (E. coli AG100A; cycle 11) was 4.773 and the “EtBr fluorescence” value (E. coli AG100A; cycle 12) was 4.602. For the same molecule, the “EtBr fluorescence” value (E. coli AG100A; cycle 13) was 4.634, the “EtBr fluorescence” value (E. coli AG100A; cycle 14) was 4.745 and the “EtBr fluorescence” value (E. coli AG100A; cycle 15) was 4.684. For the same molecule, the “EtBr fluorescence” value (E. coli AG100A; cycle 16) was 4.629, the “EtBr fluorescence” value (E. coli AG100A; cycle 17) was 4.631 and the “EtBr fluorescence” value (E. coli AG100A; cycle 18) was 4.599. For the same molecule, the “EtBr fluorescence” value (E. coli AG100A; cycle 19) was 4.579, the “EtBr fluorescence” value (E. coli AG100A; cycle 20) was 4.522 and the “EtBr fluorescence” value (E. coli AG100A; cycle 21) was 4.504. For the same molecule, the “EtBr fluorescence” value (E. coli AG100A; cycle 22) was 4.567, the “EtBr fluorescence” value (E. coli AG100A; cycle 23) was 4.591 and the “EtBr fluorescence” value (E. coli AG100A; cycle 24) was 4.544. For the same molecule, the “EtBr fluorescence” value (E. coli AG100A; cycle 25) was 4.652, the “EtBr fluorescence” value (E. coli AG100A; cycle 26) was 4.627 and the “EtBr fluorescence” value (E. coli AG100A; cycle 27) was 4.498. For the same molecule, the “EtBr fluorescence” value (E. coli AG100A; cycle 28) was 4.577, the “EtBr fluorescence” value (E. coli AG100A; cycle 29) was 4.648 and the “EtBr fluorescence” value (E. coli AG100A; cycle 30) was 4.639. For the same molecule, the “EtBr fluorescence” value (E. coli AG100A; cycle 31) was 4.704, the “EtBr fluorescence” value (E. coli AG100A; cycle 32) was 4.705 and the “EtBr fluorescence” value (E. coli AG100A; cycle 33) was 4.739. For the same molecule, the “EtBr fluorescence” value (E. coli AG100A; cycle 34) was 4.713, the “EtBr fluorescence” value (E. coli AG100A; cycle 35) was 4.766 and the “EtBr fluorescence” value (E. coli AG100A; cycle 36) was 4.793. The “EtBr fluorescence” value (E. coli AG100A; cycle 37) was 4.818, the “EtBr fluorescence” value (E. coli AG100A; cycle 38) was 4.849 and the “EtBr fluorescence” value (E. coli AG100A; cycle 39) was 4.826. The “EtBr fluorescence” value (E. coli AG100A; cycle 40) was 4.8647, the “EtBr fluorescence” value (E. coli AG100A; cycle 41) was 4.7891 and the “EtBr fluorescence” value (E. coli AG100A; cycle 42) was 4.94. The “EtBr fluorescence” value (E. coli AG100A; cycle 43) was 5.003, the “EtBr fluorescence” value (E. coli AG100A; cycle 44) was 5 and the “EtBr fluorescence” value (E. coli AG100A; cycle 45) was 5.002. For the same molecule, the “EtBr fluorescence” value (E. coli AG100A; cycle 46) was 5.099, the “EtBr fluorescence” value (E. coli AG100A; cycle 47) was 5.05 and the “EtBr fluorescence” value (E. coli AG100A; cycle 48) was 5.085. The “EtBr fluorescence” value (E. coli AG100A; cycle 49) was 5.044, the “EtBr fluorescence” value (E. coli AG100A; cycle 50) was 5.1253 and the “EtBr fluorescence” value (E. coli AG100A; cycle 51) was 5.103. For the same molecule, the “EtBr fluorescence” value (E. coli AG100A; cycle 52) was 5.071, the “EtBr fluorescence” value (E. coli AG100A; cycle 53) was 5.2927 and the “EtBr fluorescence” value (E. coli AG100A; cycle 54) was 5.227. The “EtBr fluorescence” value (E. coli AG100A; cycle 55) was 5.134, the “EtBr fluorescence” value (E. coli AG100A; cycle 56) was 5.328 and the “EtBr fluorescence” value (E. coli AG100A; cycle 57) was 5.315. For the same molecule, the “EtBr fluorescence” value (E. coli AG100A; cycle 58) was 5.365, the “EtBr fluorescence” value (E. coli AG100A; cycle 59) was 5.339 and the “EtBr fluorescence” value (E. coli AG100A; cycle 60) was 5.32. For the same molecule, the “EtBr fluorescence” value (E. coli AG100A; cycle 61) was 5.417.

Reference: PMC5433425 (PeerJ, 2017)
